Molecular target: T1, SbO4L-thrombin complex (Homo sapiens, UniProt P00734)
T1 construct: purchased Haematologic Technologies, Sigma-Aldrich or Elastin Products Company (not assigned per protease)
Assay: Protamine-mediated reversal of SbO4L inhibition of thrombin
Format: biochemical
Method: FIG. 8. Protamine-mediated reversal of SbO4L inhibition of thrombin. Recovery of thrombin activity at varying levels of protamine following 50% inhibition by SbO4L was measured through the Spectrozyme TH hydrolysis assay at pH 7.4. Solid line represents non-linear fit of the data by a logistic function similar to equation 1 to obtain the RC50, the concentration of protamine necessary to recover 50% thrombin activity.
A major advantage of heparin therapy is its amenability to protamine-based reversal. It is also one of the reasons why fondaparinux continues to suffer because its iatrogenic bleeding is difficult to reverse rapidly. To test whether SbO4L inhibition of thrombin can be reversed, we studied the recovery of thrombin activity following successive introduction of protamine. […] The protamine-mediated recovery profile essentially mirrors the SbO4L-induced inhibition profile. More importantly, the level of recovery is quantitative at high enough protamine concentrations. Further, the recovery was instantaneous as no extended incubation was necessary to observe reversal. The concentration of protamine necessary to recover 50% thrombin activity, i.e., RC50, could be calculated using an equation similar to the logistic equation 1 used for inhibition studies and found to be ˜0.1 μg/ml, […] for SbO4L inhibition of thrombin.

Q: Which results are given for protamine?
A: RC50 relative to IC50 (fold higher): 5 fold; RC50, concentration of protamine necessary to recover 50% thrombin activity (after 50% inhibition by SbO4L, pH 7.4, 37° C.): ~0.1 µg/mL; thrombin activity restored (chromogenic test systems): 100%; effect of protamine alone on thrombin activity (controls without SbO4L): did not affect the activity of thrombin

Source: patent US9777123B2, “Sulfated beta-O4 low molecular weight lignins” (VIRGINIA COMMONWEALTH UNIVERSITY, priority 2013, dated 2017)
